Laboratory results reported in patent publication US20150329558A1, “FUSED HETEROCYCLIC COMPOUNDS AS ION CHANNEL MODULATORS” (Gilead Sciences, Inc., priority 2011, published 2015).
Where two headings read alike, the source gives them in different places.

Legend:
[1] = Microsomal stability assay, dog; format: in vitro ADME; conditions: metabolic stability, dog liver microsomes 0.5 mg/mL, substrate 3 uM
Protocol: (§1) The micorsomal stability assay is generally performed as follows. Format: 15 compounds (and 1 control verapamil) in 3 different species in duplicate sets Substrate: 3 uM Protein concentration: 0.5 mg/mL (for dog, rat, and human liver microsomes) Cofactor: 1×NADPH-Regenerating system Time-points: 2, 12, 25, 45, and 65 minutes [table] Sample preparation: 25 uL at each timepoint is added to plate with 225 uL quenching solution (50% MeOH, 25% ACN, 25% H2O, and 50 nM […]). After plates are vortexed, centrifuge for 30 minutes. Microsomal solutions: take 400 uL of 20 mg/mL microsomes and add to 13,680 uL 100 mM KPO4 buffer. Using an 8-channel, add 650 uL of this solution to the designated two columns on a short plate. The order should be dog microsomes in columns 1 and 2, rat microsomes in columns 3 and 4, and human microsomes in columns 5 and 6. Keep on ice before use. Place this plate in incubator 1 on the TECAN countertop.

[2] = Microsomal stability assay, human; format: in vitro ADME; conditions: metabolic stability, human liver microsomes 0.5 mg/mL, substrate 3 uM
Protocol: as §1

[3] = Microsomal stability assay, rat; format: in vitro ADME; conditions: metabolic stability, rat liver microsomes 0.5 mg/mL, substrate 3 uM
Protocol: as §1

[4] = biological target: wild-type human cardiac sodium channel, hNav1.5 (late INa) (Homo sapiens, UniProt Q14524); test: Late INa screening assay (QPatch whole cell patch clamp); format: cell-based
Protocol: The late sodium current (Late INa) and peak sodium current (Peak INa) assays are performed on an automated electrophysiology platform, QPatch 16× (Sophion Bioscience, Copenhagen, Denmark), which uses the whole cell patch clamp technique to measure currents through the cell membrane of up to 16 cells at a time. The assay uses an HEK293 (human embryonic kidney) cell line heterologously expressing the wild-type human cardiac sodium channel, hNav1.5, purchased from Millipore (Billerica, Mass.). No beta subunits were coexpressed with the Na channel alpha subunit. Cells are maintained with standard tissue culture procedures and stable channel expression is maintained with 400 μg/mL Geneticin in the culture medium. […] Experiments are carried out at 23-25° C. For both the Late INa and Peak INa assays, series resistance compensation is set to 100% and series resistance and whole-cell compensation are performed automatically. Currents are digitized at 25 kHz and low-pass filtered at 12 kHz and 10 kHz for the late and peak INa assays, respectively. Currents through open sodium channels are automatically recorded and stored in the Sophion Bioscience Oracle database (Sophion Bioscience, Copehagen, Denmark). Analysis is performed using QPatch Assay and database software and data are compiled in Excel. Compound stocks are routinely made by the Gilead Sample Bank in plastic vials to 10 mM in dimethyl sulfoxide (DMSO). In some cases, when compounds are not soluble in DMSO, they are made in 100% ethanol. Stocks are sonicated as necessary. […] The intracellular solution used to perfuse the inside of the cells for both the Late INa and Peak INa assays contains: 120 mM CsF, 20 mM CsCl, 5 mM EGTA, 5 mM HEPES and pH adjusted to 7.4 with CsOH. Compounds are diluted in extracellular solution to 1 μM in glass vials and then transferred to glass well plates before robotic addition to the cells. […] For the Late INa assay, sodium channels are activated every 10 seconds (0.1 Hz) by depolarizing the cell membrane to −20 mV for 250 milliseconds (ms) from a holding potential of −120 mV. In response to a −20 mV voltage step, typical hNav1.5 sodium currents activate rapidly to a peak negative current and then inactivate nearly completely within 3-4 ms. All compounds were tested to determine their activity in blocking the late sodium current. Late INa was generated by adding 10 μM Tefluthrin (pyrethroid) to the extracellular solution while recording Na currents. To confirm the block of late INa observed using the automated screening method, a second late INa enhancer (ATX-II) and the manual patch clamp method were used. ATX-II and tefluthrin occupy distinct, non-overlapping binding sites and modify Na^+ channel function differently to increase late INa. […] For the purposes of the screening, late INa is defined as the mean current between 225 ms and 250 ms after stepping to −20 mV to activate Na channels. […] Results are reported as percent block of late INa.

[5] = percent block of late INa, compound at 1 μM, 10 μM Tefluthrin, HEK293 hNav1.5, read-out: Late INa 1 μM

Chain of wild-type human cardiac sodium channel, hNav1.5 (late INa) (Q14524 whole entry): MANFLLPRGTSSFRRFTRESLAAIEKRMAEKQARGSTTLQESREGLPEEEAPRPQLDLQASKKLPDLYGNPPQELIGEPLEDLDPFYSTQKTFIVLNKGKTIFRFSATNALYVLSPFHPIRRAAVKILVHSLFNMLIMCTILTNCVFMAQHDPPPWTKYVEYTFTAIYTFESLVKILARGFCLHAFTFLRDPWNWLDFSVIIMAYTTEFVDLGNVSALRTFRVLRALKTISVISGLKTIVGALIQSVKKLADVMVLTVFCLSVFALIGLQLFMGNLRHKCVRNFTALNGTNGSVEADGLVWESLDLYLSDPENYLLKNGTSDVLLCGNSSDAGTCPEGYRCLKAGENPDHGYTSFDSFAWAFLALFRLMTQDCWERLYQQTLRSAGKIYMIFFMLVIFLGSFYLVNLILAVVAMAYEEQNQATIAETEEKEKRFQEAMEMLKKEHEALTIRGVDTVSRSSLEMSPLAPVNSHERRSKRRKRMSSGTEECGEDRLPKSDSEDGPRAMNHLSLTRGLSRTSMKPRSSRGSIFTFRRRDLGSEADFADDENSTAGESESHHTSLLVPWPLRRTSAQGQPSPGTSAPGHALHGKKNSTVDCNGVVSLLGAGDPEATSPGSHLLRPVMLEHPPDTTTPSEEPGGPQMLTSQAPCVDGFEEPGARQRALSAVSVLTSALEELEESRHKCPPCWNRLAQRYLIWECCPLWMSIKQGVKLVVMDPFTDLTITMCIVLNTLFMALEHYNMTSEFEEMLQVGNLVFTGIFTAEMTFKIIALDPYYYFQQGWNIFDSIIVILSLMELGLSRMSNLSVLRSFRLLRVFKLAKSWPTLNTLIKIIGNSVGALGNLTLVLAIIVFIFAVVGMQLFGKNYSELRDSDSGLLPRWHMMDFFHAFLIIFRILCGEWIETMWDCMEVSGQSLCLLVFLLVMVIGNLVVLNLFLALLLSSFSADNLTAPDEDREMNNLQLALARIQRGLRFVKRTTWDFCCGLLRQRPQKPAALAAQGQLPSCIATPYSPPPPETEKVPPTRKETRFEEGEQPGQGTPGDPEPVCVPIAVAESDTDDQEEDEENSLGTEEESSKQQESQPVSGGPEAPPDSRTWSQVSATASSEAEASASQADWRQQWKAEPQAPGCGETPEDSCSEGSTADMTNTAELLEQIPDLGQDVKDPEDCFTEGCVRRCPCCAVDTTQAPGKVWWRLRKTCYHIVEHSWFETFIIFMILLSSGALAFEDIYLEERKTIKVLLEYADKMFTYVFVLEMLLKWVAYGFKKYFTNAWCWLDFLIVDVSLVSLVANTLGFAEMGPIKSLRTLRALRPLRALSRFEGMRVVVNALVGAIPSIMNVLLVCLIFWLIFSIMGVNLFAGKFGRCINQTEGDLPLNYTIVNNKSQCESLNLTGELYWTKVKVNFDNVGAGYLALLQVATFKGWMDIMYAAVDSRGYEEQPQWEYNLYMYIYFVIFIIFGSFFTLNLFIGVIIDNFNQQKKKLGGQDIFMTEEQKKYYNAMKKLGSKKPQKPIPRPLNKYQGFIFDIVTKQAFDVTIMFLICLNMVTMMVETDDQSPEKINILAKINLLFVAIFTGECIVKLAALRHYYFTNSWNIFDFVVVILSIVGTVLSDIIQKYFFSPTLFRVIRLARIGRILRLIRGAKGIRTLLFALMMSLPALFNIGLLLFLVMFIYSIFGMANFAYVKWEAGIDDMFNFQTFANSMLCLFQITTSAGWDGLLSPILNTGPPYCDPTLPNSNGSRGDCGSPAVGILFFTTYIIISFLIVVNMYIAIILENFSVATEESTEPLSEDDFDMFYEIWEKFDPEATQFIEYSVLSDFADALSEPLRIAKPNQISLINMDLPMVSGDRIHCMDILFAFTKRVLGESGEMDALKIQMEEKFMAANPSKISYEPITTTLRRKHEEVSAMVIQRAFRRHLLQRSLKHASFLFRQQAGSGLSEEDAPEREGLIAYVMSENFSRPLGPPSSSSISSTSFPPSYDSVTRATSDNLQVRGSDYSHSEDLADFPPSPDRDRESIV

| MS Dog THalf [1] [min] | MS Human THalf [2] [min] | MS Rat THalf [3] [min] | Structure (SMILES) | inhibition at 1 µM [4, 5] [%] | inhibition at 1 µM ([4]; % inhibition at 1 μM, read-out: NAv1.5*-LATE-) [%] |
| --- | --- | --- | --- | --- | --- |
| 18 | 41 | 18 | O=c1c2cc(-c3ccc(OC(F)(F)F)cc3)ccc2cnn1CCn1cccc1 [III-10, 2-(2-(1H-pyrrol-1-yl)ethyl)-7-(4-(trifluoromethoxy)phenyl)phthalazin-1(2H)-one] | 33 | – |
| 6 | 11 | 8 | CCOC(=O)N1CCC(=O)C(n2nnc3ccc(-c4ccc(OC(F)(F)F)cc4)cc3c2=O)C1 (stereo not shown) [II-72, ethyl 4-oxo-3-(4-oxo-6-(4-(trifluoromethoxy)phenyl)benzo[d][1,2,3]triazin-3(4H)-yl)piperidine-1-carboxylate] | 31 | – |
| 31 | 46 | 32 | O=c1c2cc(-c3ccc(OC(F)(F)F)cc3)ccc2cnn1CCc1ccncn1 [III-36, 2-(2-(pyrimidin-4-yl)ethyl)-7-(4-(trifluoromethoxy)phenyl)phthalazin-1 (2H)-one] | 39 | – |
| 177 | 125 | 192 | O=C(NCc1ncccn1)N1CCc2ccc(-c3ccc(C(F)(F)F)cc3)cc2C1 [IX-89, N-(pyrimidin-2-ylmethyl)-7-(4-(trifluoromethyl)phenyl)-3,4-dihydroisoquinoline-2(1H)-carboxamide] | 33 | – |
| 4 | 10 | 10 | Cc1noc(Cn2nnc3ccc(-c4ccc(Oc5ccccc5)cc4)cc3c2=O)n1 [II-7, 3-((3-methyl-1,2,4-oxadiazol-5-yl)methyl)-6-(4-phenoxyphenyl)benzo[d][1,2,3]triazin-4(3H)-one] | 75 | – |
| 36 | 149 | 25 | O=c1c2cc(-c3ccc(OC(F)(F)F)cc3)ccc2nnn1CCn1cccn1 [II-13, 3-(2-(1H-pyrazol-1-yl)ethyl)-6-(4-(trifluoromethoxy)phenyl)benzo[d][1,2,3]triazin-4(3H)-one] | 67 | – |
| 93 | > 395 | 197 | N#Cc1cnc(OCCn2nnc3ccc(-c4ccc(OC(F)(F)F)cc4)cc3c2=O)nc1 [II-51, 2-(2-(4-oxo-6-(4-(trifluoromethoxy)phenyl)benzo[d][1,2,3]triazin-3(4H)-yl)ethoxy)pyrimidine-5-carbonitrile] | 35 | – |
| 80 | 28 | 16 | O=C(Cn1nnc2ccc(-c3ccc(OC(F)(F)F)cc3)cc2c1=O)N1CCN(c2ncccn2)CC1 [II-41, 3-(2-oxo-2-(4-(pyrimidin-2-yl)piperazin-1-yl)ethyl)-6-(4-(trifluoromethoxy)phenyl)benzo[d][1,2,3]triazin-4(3H)-one] | 25 | – |
| 159 | 165 | 49 | N#CC1(c2ccc(-c3ccc4nnn(CCOc5ncccn5)c(=O)c4c3)cc2)CC1 [II-50, 1-(4-(4-oxo-3-(2-(pyrimidin-2-yloxy)ethyl)-3,4-dihydrobenzo[d][1,2,3]triazin-6-yl)phenyl)cyclopropanecarbonitrile] | 30 | – |
| 370 | 245 | 302 | O=C(N1CCc2ccc(-c3ccc(C(F)(F)F)cc3)cc2C1)N1CC(O)C1 [IX-108, (3-hydroxyazetidin-1-yl)(7-(4-(trifluoromethyl)phenyl)-3,4-dihydroisoquinolin-2(1H)-yl)methanone] | 30 | 30 |
| 54 | 366 | 219 | Cc1nonc1Cn1cnc2ccc(-c3ccc(OC(F)(F)F)cc3)cc2c1=O [IV-3, 3-((4-methyl-1,2,5-oxadiazol-3-yl)methyl)-6-(4-(trifluoromethoxy)phenyl)quinazolin-4(3H)-one] | 37 | – |
| 93 | 198 | 28 | O=C(N1CCCC1)N1CCc2ccc(-c3ccc(C(F)(F)F)cc3)cc2C1 [IX-53, pyrrolidin-1-yl(7-(4-(trifluoromethyl)phenyl)-3,4-dihydroisoquinolin-2(1H)-yl)methanone] | 33 | – |
| 46 | 50 | 41 | COc1ncc(-c2cnn(CCn3ncc4ccc(-c5ccc(OC(F)(F)F)cc5)cc4c3=O)c2)cn1 [III-34, 2-(2-(4-(2-methoxypyrimidin-5-yl)-1H-pyrazol-1-yl)ethyl)-7-(4-(trifluoromethoxy)phenyl)phthalazin-1 (2H)-one] | – | – |
| – | – | – | O=C(NCc1ccccc1)N1CCc2ccc(-c3ccc(C(F)(F)F)cc3)cc2C1 [IX-41, N-benzyl-7-(4-(trifluoromethyl)phenyl)-3,4-dihydroisoquinoline-2(1H)-carboxamide] | 27 | – |
| – | – | – | O=C1c2cc(-c3ccc(C(F)(F)F)cc3)ccc2OCN1Cc1ncccn1 [VIII-19, 3-(pyrimidin-2-ylmethyl)-6-(4-(trifluoromethyl)phenyl)-2H-benzo[e][1,3]oxazin-4(3H)-one] | 61 | – |
| – | – | – | O=C(N1CCc2ccc(-c3ccc(C(F)(F)F)cc3)cc2C1)N1CCC[C@H]1CO [IX-102, (S)-(2-(hydroxymethyl)pyrrolidin-1-yl)(7-(4-(trifluoromethyl)phenyl)-3,4-dihydroisoquinolin-2(1H)-yl)methanone] | 27 | – |
| – | – | – | O=C(Cc1ncccn1)N1CCc2ccc(-c3ccc(C(F)(F)F)cc3)cc2C1 [IX-30, 2-(pyrimidin-2-yl)-1-(7-(4-(trifluoromethyl)phenyl)-3,4-dihydroisoquinolin-2(1H)-yl)ethanone] | 20 | – |
| – | – | – | O=c1c2cc(-c3ccc(OC(F)(F)F)cc3)ccc2nnn1OCc1ncccn1 [II-56, 3-(pyrimidin-2-ylmethoxy)-6-(4-(trifluoromethoxy)phenyl)benzo[d][1,2,3]triazin-4(3H)-one] | 22 | – |
| – | – | – | CC1(C)Oc2ccc(-c3ccc(OC(F)(F)F)cc3)cc2C(=O)N1Cc1ccccn1 [VIII-13, 2,2-dimethyl-3-(pyridin-2-ylmethyl)-6-(4-(trifluoromethoxy)phenyl)-2H-benzo[e][1,3]oxazin-4(3H)-one] | 20 | – |
| – | – | – | CC(C)n1cc(C(=O)N2CCc3ccc(-c4ccc(C(F)(F)F)cc4)cc3C2)cn1 [IX-27, (1-isopropyl-1H-pyrazol-4-yl)(7-(4-(trifluoromethyl)phenyl)-3,4-dihydroisoquinolin-2(1H)-yl)methanone] | 18 | – |
| – | – | – | Cn1cnc(S(=O)(=O)N2CCc3ccc(-c4ccc(C(F)(F)F)cc4)cc3C2)c1 [IX-98, 2-(1-methyl-1H-imidazol-4-ylsulfonyl)-7-(4-(trifluoromethyl)phenyl)-1,2,3,4-tetrahydroisoquinoline] | 27 | – |
| – | – | – | Cc1nc(Cn2nnc3ccc(-c4ccc(OC(F)(F)F)cc4)cc3c2=O)oc1C [II-23, 3-((4,5-dimethyloxazol-2-yl)methyl)-6-(4-(trifluoromethoxy)phenyl)benzo[d][1,2,3]triazin-4(3H)-one] | 23 | – |
